# Measured values from patent US20110160249A1, “5-LIPOXYGENASE-ACTIVATING PROTEIN INHIBITOR” (priority 2008, published 2011).
# pIC50: −log10 of the molar value. Read-outs that look alike come from different tables or passages of the source. Marks after values point to notes of the source that are not given here.
# Legend:
# Solubility vs. pH = assay type: physicochemical; conditions: 0.15 M aqueous sodium chloride, saline or isotonic, thermodynamic from solid, 0.15M sodium chloride (aqueous), read-out: Solubility, Concentration
# Procedure: Suspensions were made up in 0.15M sodium chloride (aqueous) and the pH adjusted to the appropriate value with either diluted hydrochloric acid or sodium hydroxide, to ensure that different salt forms with different solubilities are not produced in solution. The suspension was then allowed to equilibrate for 2 h, and the pH was checked and re-adjusted if required.
# The pH of the resultant solution was measured, and the solubility was calculated by HPLC-UV assay of the compound concentration in solution.
# [1] = Single dose kinetics in beagle dogs; assay type: in vivo; conditions: female, dog, plasma, Fasted
# [2] = system: whole blood ionophore-stimulated leukotriene LTB4; test: Phase I study, whole blood ionophore-stimulated LTB4; assay type: in vivo, human; conditions: for Emax / EC50 / EC90: Homo sapiens; for Emax: read-out: Emax (%), maximum inhibition of LTB4; for EC50: read-out: EC50 (ng/mL), concentration at which 50% inhibition was reached; for LTB4 level at t = 24 hrs. (% of baseline): oral solution
# Text: (§1) Study Design: Single center, double-blind, randomized, placebo-controlled, single ascending dose followed by multiple ascending dose study.
# (§2) Sample Size: (1) Single Dose Phase: eight (8) subjects (6 active, 2 placebo) per dose level; up to 5 dose levels are planned (a total of 40 subjects if all 5 dose levels are completed); and (2) Multiple Dose Phase: eight (8) subjects (6 active, 2 placebo) per dose level; up to 4 dose levels are planned (a total of 32 subjects if all 4 dose levels are completed).
# (§3) Formulations: Compound 2 was supplied as an oral powder for reconstitution. Placebo solution matched. […] The placebo differed only in the absence of the active.
# (§4) The following dosing cohorts were used:
# (§5) Routes of Administration: All doses were administered orally with approximately 100 mL of water rinse. Subjects were fasted for at least 8 hours prior to dosing and for 2 hours after dosing. For BID dosing in the Multiple Dose Phase, when applicable, subjects were fasted for at least 2 hours prior to the second daily dose.
# (§6) Plasma concentrations of Compound 1 were determined using a validated LC/MS method. Whole blood ionophore-stimulated leukotriene LTB4 and urinary LTE4 production were assayed by ELISA and mass spectrometry, respectively.
# (§7) Analysis of Samples: Concentrations of Compound 1 was determined in plasma samples collected from subjects. Similarly, concentrations of LTB4 in plasma and urinary LTE4 were determined in blood and urine samples collected.
# CYP 2C9 = molecular target: T1, CYP 2C9 (Homo sapiens, UniProt P11712); test: Extracellular Cytochrome P450 inhibition, 2C9; assay type: in vitro ADME; conditions: diclofenac 4′-hydroxylation
# T1 construct: from tissue
# T1 sequence (P11712 whole entry): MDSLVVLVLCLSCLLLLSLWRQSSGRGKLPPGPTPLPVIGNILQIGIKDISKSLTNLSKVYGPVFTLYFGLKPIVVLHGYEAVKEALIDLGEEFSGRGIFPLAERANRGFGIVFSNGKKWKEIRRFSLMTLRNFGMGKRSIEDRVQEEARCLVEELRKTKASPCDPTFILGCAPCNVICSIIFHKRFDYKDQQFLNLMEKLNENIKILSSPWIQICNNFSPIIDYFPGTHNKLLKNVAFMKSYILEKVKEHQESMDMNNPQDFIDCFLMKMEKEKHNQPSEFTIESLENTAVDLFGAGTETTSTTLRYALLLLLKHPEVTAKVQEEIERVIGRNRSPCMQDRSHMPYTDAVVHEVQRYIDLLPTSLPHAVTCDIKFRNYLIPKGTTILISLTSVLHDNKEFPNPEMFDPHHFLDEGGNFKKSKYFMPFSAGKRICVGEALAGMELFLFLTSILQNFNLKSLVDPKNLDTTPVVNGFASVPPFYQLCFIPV
# Procedure: (§8) Aliquots of this mixture to (89 μL) were delivered to each well of a 96-well polypropylene plate which contained an aliquot of inhibitor (1 μL). Final solvent concentrations were 1% (v/v) or less. Incubations were commenced with the addition of 10 μL β-NADPH (10 mM stock) to a final volume of 100 μL. […] Samples were centrifuged, and supernatant was transferred for LC-MS analysis.
# urinary LTE4 production = test: Phase I study, urinary LTE4; assay type: in vivo, human; conditions: for Emax: Homo sapiens
# Text: as §1, §2, §3, §4, §5, §6, §7
# [3] = system: production of LTB4 after ionophore stimulation in washed human leukocytes; test: LTB4 inhibition in washed human leukocytes; assay type: cell-based; conditions: Leukocyte, mean of 4 tests
# CYP3A4 = molecular target: T2, CYP3A4 (Homo sapiens, UniProt P08684); test: Extracellular Cytochrome P450 inhibition, 3A4; assay type: in vitro ADME
# T2 construct: from tissue
# T2 sequence (P08684 whole entry): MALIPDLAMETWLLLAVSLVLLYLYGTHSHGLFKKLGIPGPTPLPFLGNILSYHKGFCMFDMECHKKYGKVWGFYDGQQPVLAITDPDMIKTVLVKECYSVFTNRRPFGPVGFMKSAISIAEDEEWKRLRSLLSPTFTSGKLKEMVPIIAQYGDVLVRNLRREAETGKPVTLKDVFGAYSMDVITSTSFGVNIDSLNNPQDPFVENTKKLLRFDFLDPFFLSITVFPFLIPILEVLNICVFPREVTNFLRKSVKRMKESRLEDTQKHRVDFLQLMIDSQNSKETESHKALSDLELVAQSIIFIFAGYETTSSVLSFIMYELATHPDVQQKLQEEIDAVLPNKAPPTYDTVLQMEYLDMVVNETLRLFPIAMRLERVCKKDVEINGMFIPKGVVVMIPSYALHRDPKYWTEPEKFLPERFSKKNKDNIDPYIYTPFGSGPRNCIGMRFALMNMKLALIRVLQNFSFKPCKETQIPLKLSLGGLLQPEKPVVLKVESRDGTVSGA
# Procedure: as §8
# [4] = IV, 4:1 PEG400:Water, 0.67 mg/kg
# [5] = 24 h, Multiple dose part, Day 1, 10 mg
# [6] = 24 h, Multiple dose part, Day 1, 50 mg
# [7] = 24 h, Multiple dose part, Day 1, 150 mg
# [8] = 24 h, Multiple dose part, Day 1, 450 mg
# [9] = 24 h, Single dose part, Day 1, 50 mg
# [10] = 24 h, Single dose part, Day 1, 150 mg
# [11] = 24 h, Single dose part, Day 1, 300 mg
# [12] = 24 h, Single dose part, Day 1, 600 mg
# [13] = 24 h, Single dose part, Day 1, 1000 mg
# [14] = 264 h, Multiple dose part, Day 11, 10 mg
# [15] = 264 h, Multiple dose part, Day 11, 50 mg
# [16] = 264 h, Multiple dose part, Day 11, 150 mg
# [17] = 264 h, Multiple dose part, Day 11, 450 mg
# [18] = Multiple dose part, Day 1, 10 mg
# [19] = Multiple dose part, Day 1, 50 mg
# [20] = Multiple dose part, Day 1, 150 mg
# [21] = Multiple dose part, Day 1, 450 mg
# [22] = Multiple dose part, Day 11, 10 mg
# [23] = Multiple dose part, Day 11, 50 mg
# [24] = Multiple dose part, Day 11, 150 mg
# [25] = Multiple dose part, Day 11, 450 mg
# [26] = Single dose part, Day 1, 150 mg
# [27] = Single dose part, Day 1, 300 mg
# [28] = Single dose part, Day 1, 600 mg
# [29] = Single dose part, Day 1, 1000 mg
structure (smiles),measurement,setting,value
"CCOc1ccc(-c2ccc(Cn3c(CC(C)(C)C(=O)[O-])c(SC(C)(C)C)c4cc(OCc5ccc(C)cn5)ccc43)cc2)cn1.[Na+] [Compound 2, sodium 3-[3-(tert-butylsulfanyl)-1-[4-(6-ethoxy-pyridin-3-yl)benzyl]-5-(5-methyl-pyridin-2-yl-methoxy)-1H-indol-2-yl]-2,2-dimethylpropionate]",solubility at 2 h,Solubility vs. pH; pH 1.1,26 µg/mL
same,solubility at 2 h,Solubility vs. pH; pH 3.8,< 0.1 µg/mL
same,solubility at 2 h,Solubility vs. pH; pH 6.9,0.7 µg/mL
same,solubility at 2 h,Solubility vs. pH; pH 9.0,3500 µg/mL
same,solubility at 2 h,Solubility vs. pH; pH 9.8,> 10000 µg/mL
same,solubility at 2 h,Solubility vs. pH; pH 11.2,> 10000 µg/mL
same,AUC(0-inf),[1]; [4],17600 ng·h/mL
same,Cmax,[1]; [4],12000 ng/mL
same,Tmax,[1]; [4],1.02 min
same,bioavailability,[1]; [4],100%
same,clearance,"[1]; IV, 4:1 PEG400:Water, 0.67 mg/kg, read-out: CLp",0.6 mL/min/kg
same,Vd,"[1]; IV, 4:1 PEG400:Water, 0.67 mg/kg, read-out: VdSS",0.2 L/kg
same,Cmax,"[1]; Oral, 0.5% Methylcellulose, 5 mg/kg",12400 ng/mL
same,Emax,[2]; [5],60.8%
same,Emax,[2]; [6],89.6%
same,Emax,[2]; [7],98.5%
same,Emax,[2]; [8],97.6%
same,EC50,"[2]; 24 h, Multiple dose part, Day 1, Multiple dose total",51 ng/mL
same,Emax,[2]; [9],87.9%
same,Emax,[2]; [10],98.8%
same,Emax,[2]; [11],102%
same,Emax,[2]; [12],100%
same,Emax,[2]; [13],99.6%
same,EC50,"[2]; 24 h, Single dose part, Day 1, Single dose total",90 ng/mL
same,EC90,"[2]; 24 h, read-out: EC90 (ng/mL), concentration at which 90% inhibition was reached, Multiple dose part, Day 1, Multiple dose total",296 ng/mL
same,EC90,"[2]; 24 h, read-out: EC90 (ng/mL), concentration at which 90% inhibition was reached, Single dose part, Day 1, Single dose total",342 ng/mL
same,Emax,[2]; [14],74.4%
same,Emax,[2]; [15],97.9%
same,Emax,[2]; [16],99.7%
same,Emax,[2]; [17],101%
same,EC50,"[2]; 264 h, Multiple dose part, Day 11, Multiple dose total",52 ng/mL
same,EC90,"[2]; 264 h, read-out: EC90 (ng/mL), concentration at which 90% inhibition was reached, Multiple dose part, Day 11, Multiple dose total",308 ng/mL
same,"Tmax (h), time to reach Emax",[2]; [18],12.00 h
same,"tE>90% (h), time above 90% LTB4 inhibition",[2]; [18],0.0 h
same,"Tmax (h), time to reach Emax",[2]; [19],4.00 h
same,"tE>50% (h), time above 50% LTB4 inhibition",[2]; [19],>23.3 h
same,"tE>90% (h), time above 90% LTB4 inhibition",[2]; [19],0.0 h
same,"Tmax (h), time to reach Emax",[2]; [20],3.00 h
same,"tE>50% (h), time above 50% LTB4 inhibition",[2]; [20],>23.4 h
same,"Tmax (h), time to reach Emax",[2]; [21],3.00 h
same,"tE>50% (h), time above 50% LTB4 inhibition",[2]; [21],>23.7 h
same,"Tmax (h), time to reach Emax",[2]; [22],12.00 h
same,"tE>90% (h), time above 90% LTB4 inhibition",[2]; [22],0.0 h
same,"Tmax (h), time to reach Emax",[2]; [23],4.00 h
same,"tE>90% (h), time above 90% LTB4 inhibition",[2]; [23],10.0 h
same,"Tmax (h), time to reach Emax",[2]; [24],2.00 h
same,"tE>50% (h), time above 50% LTB4 inhibition",[2]; [24],>72.0 h
same,"Tmax (h), time to reach Emax",[2]; [25],2.00 h
same,"tE>50% (h), time above 50% LTB4 inhibition",[2]; [25],>72.0 h
same,"Tmax (h), time to reach Emax","[2]; Single dose part, Day 1, 50 mg",8.00 h
same,"tE>90% (h), time above 90% LTB4 inhibition","[2]; Single dose part, Day 1, 50 mg",0.0 h
same,"Tmax (h), time to reach Emax",[2]; [26],6.00 h
same,"Tmax (h), time to reach Emax",[2]; [27],8.00 h
same,"tE>50% (h), time above 50% LTB4 inhibition","[2]; Single dose part, Day 1, 300 mg, estimated",~30^# h
same,"Tmax (h), time to reach Emax",[2]; [28],6.00 h
same,"tE>50% (h), time above 50% LTB4 inhibition",[2]; [28],>71.7 h
same,"Tmax (h), time to reach Emax",[2]; [29],6.00 h
same,"tE>50% (h), time above 50% LTB4 inhibition",[2]; [29],>71.7 h
same,LTB4 level at t = 24 hrs. (% of baseline),[2]; single dose 50 mg,37 ± 4.7 % of baseline
same,LTB4 level at t = 24 hrs. (% of baseline),[2]; single dose 150 mg,24 ± 4.4 % of baseline
same,LTB4 level at t = 24 hrs. (% of baseline),[2]; single dose 300 mg,23 ± 8.3 % of baseline
same,LTB4 level at t = 24 hrs. (% of baseline),[2]; single dose 600 mg,1.6 ± 0.98 % of baseline
same,LTB4 level at t = 24 hrs. (% of baseline),[2]; single dose 1000 mg,1.9 ± 0.41 % of baseline
same,pIC50,CYP 2C9,< 4.30
same,Emax,urinary LTE4 production; [5],54.1%
same,Emax,urinary LTE4 production; [6],94%
same,Emax,urinary LTE4 production; [7],98.3%
same,Emax,urinary LTE4 production; [8],85.7%
same,Emax,urinary LTE4 production; [9],86.3%
same,Emax,urinary LTE4 production; [10],97.4%
same,Emax,urinary LTE4 production; [11],97%
same,Emax,urinary LTE4 production; [12],96%
same,Emax,urinary LTE4 production; [13],96.6%
same,Emax,urinary LTE4 production; [14],88.6%
same,Emax,urinary LTE4 production; [15],97.7%
same,Emax,urinary LTE4 production; [16],97.5%
same,Emax,urinary LTE4 production; [17],98.4%
same,"Tmax (h), LTE4",urinary LTE4 production; [18],24.00 h
same,"Tmax (h), LTE4",urinary LTE4 production; [19],16.00 h
same,"Tmax (h), LTE4",urinary LTE4 production; [20],24.00 h
same,"Tmax (h), LTE4",urinary LTE4 production; [21],24.00 h
same,"Tmax (h), LTE4",urinary LTE4 production; [22],12.00 h
same,"Tmax (h), LTE4",urinary LTE4 production; [23],9.00 h
same,"Tmax (h), LTE4",urinary LTE4 production; [24],24.00 h
same,"Tmax (h), LTE4",urinary LTE4 production; [25],12.00 h
same,"Tmax (h), LTE4","urinary LTE4 production; Single dose part, Day 1, 50 mg",16.00 h
same,"Tmax (h), LTE4",urinary LTE4 production; [26],16.00 h
same,"Tmax (h), LTE4",urinary LTE4 production; [27],24.00 h
same,"Tmax (h), LTE4",urinary LTE4 production; [28],24.00 h
same,"Tmax (h), LTE4",urinary LTE4 production; [29],16.00 h
same,pIC50,[3],9.36
same,pIC50,CYP3A4; midazolam 1-hydroxylation,< 4.30
same,pIC50,CYP3A4; testosterone 6β-hydroxylation,< 4.40
